Experimental data: patent US20240389587A1, “COMPOSITIONS AND METHODS FOR CONTROLLING PHYTOPATHOGENIC INFECTIONS” (INSTITUT NATIONAL DE RECHERCHE POUR L'AGRICULTURE, …, priority 2021, published 2024)
Where two headings read alike, the source gives them in different places.

Biological target: T1, IRE1 (Saccharomyces cerevisiae, UniProt P32361)
T1 construct: endogenous in cells
Test: IRE1 inhibitors screening (inhibition of transcriptional activator HAC1 in yeast)
Format: cell-based
Source text: A series of natural products were screened for their capacity to inhibit the UPR pathway via the inhibition of IRE1 in an in vitro screening test, based inhibition of the transcriptional activator HAC1 in Saccharomyces cerevisiae (the IRE1 protein is the ‘sole effector of the UPR pathway in fungi).

[1] = in vitro screening, IRE1 activity of less than 80% = retained as IRE1 inhibitor

T1 sequence (P32361 19-1115): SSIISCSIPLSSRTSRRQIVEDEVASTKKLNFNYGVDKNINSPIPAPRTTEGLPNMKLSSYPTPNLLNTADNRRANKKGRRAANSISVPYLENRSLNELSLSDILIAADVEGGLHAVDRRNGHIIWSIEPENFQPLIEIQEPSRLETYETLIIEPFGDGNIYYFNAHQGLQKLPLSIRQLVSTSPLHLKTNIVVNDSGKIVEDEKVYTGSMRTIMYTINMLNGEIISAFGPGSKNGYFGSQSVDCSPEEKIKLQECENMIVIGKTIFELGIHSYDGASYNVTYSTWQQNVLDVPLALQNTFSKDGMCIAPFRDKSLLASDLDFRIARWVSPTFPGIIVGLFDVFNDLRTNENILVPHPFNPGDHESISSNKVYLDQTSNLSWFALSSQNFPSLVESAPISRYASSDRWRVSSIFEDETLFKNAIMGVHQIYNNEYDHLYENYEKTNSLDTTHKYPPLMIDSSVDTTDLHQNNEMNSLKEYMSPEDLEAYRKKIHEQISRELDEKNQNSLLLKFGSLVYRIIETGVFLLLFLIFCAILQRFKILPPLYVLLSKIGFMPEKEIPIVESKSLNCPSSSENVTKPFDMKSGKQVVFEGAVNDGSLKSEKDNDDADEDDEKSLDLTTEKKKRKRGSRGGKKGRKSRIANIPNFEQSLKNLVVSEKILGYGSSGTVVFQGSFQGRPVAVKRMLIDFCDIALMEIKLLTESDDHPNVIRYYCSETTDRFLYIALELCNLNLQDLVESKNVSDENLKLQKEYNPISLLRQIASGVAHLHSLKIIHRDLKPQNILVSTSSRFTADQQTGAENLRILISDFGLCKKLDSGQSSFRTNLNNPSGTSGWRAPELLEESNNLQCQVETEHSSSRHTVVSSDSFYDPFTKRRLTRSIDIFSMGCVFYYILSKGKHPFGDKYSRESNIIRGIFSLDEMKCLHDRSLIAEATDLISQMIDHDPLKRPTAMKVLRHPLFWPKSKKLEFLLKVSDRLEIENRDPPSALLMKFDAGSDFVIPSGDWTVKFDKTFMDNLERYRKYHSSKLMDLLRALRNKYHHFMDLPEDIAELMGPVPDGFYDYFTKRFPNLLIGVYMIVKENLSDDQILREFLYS

Molecule: O=C1C=CC(=O)c2c(O)cccc21 [Juglone, 5-hydroxy-1,4-naphthalenedione]
- IC50: 12.8 µM
- IRE1 inhibition (in words): inhibit IRE1 in a micromolar scale
- μ (% activation) ± σ [1]: 43.5 ± 3.7%

Molecule: COc1cc2oc3cc(O)c(OC)c(CC=C(C)C)c3c(=O)c2c(O)c1CC=C(C)C [β-mangostin]
- μ (% activation) ± σ [1]: 100.3 ± 4.7%

Molecule: COc1cc2c(cc1OC)[C@@H]1Cc3ccc(OC)c(OC)c3CN1CC2 [Tétrahydropalmatine]
- μ (% activation) ± σ [1]: 101.8 ± 4.8%

Molecule: O=C(O)C1=C[C@@H](O)[C@@H](O)[C@H](O)C1 [Shikimic acid]
- μ (% activation) ± σ [1]: 102.0 ± 6.2%

Molecule: C=CC(C)(C)c1c2c(c(O)c3c(=O)c4cccc(O)c4oc13)C=CC(C)(C)O2 [Caloxanthone C]
- μ (% activation) ± σ [1]: 104.2 ± 2.8%

Molecule: C=CC(C)(C)c1c(OC)cc(O)c2c(=O)c3ccc(O)c(O)c3oc12 [Isocudraniaxanthone B]
- μ (% activation) ± σ [1]: 94.3 ± 0.9%

Molecule: COc1c(O)ccc2oc3ccccc3c(=O)c12 [1-methoxy-2-hydroxy-xanthone]
- μ (% activation) ± σ [1]: 97.9 ± 3.6%

Molecule: CC(C)=CCC/C(C)=C/COc1c2ccoc2cc2oc(=O)ccc12 [Bergamotine]
- μ (% activation) ± σ [1]: 103.5 ± 1.6%

Molecule: COc1cc2c(cc1O)C1Cc3cc(OC)c(OC)cc3C(C2)N1C (single isomer, unassigned; (-)) [(−)-Norargemonine]
- μ (% activation) ± σ: 101.7 ± 3.6%

Molecule: Tetraprenyltoluquinone
- μ (% activation) ± σ [1]: 100.8 ± 1.5%

Molecule: C[C@H](C/C=C/C(C)(C)O)[C@@H]1CC[C@]2(C)C3=C(CC[C@@]12C)[C@@]1(C)CC[C@H](O)C(C)(C)C1CC3 (stereo partly drawn) [(20R,23E)-Eupha-8,23-diene-3b,25-diol]
- μ (% activation) ± σ [1]: 100.6 ± 2.5%

Molecule: O=C(CCc1ccc(O)cc1)c1c(O)cc(O)cc1O [Phloretin]
- μ (% activation) ± σ [1]: 101.8 ± 1.7%

Molecule: COc1cc2c(cc1OC)C1Cc3ccc(OC)c(OC)c3C(=O)N1CC2 (racemic) [(±)-8-Oxotetrahydropalmatine]
- μ (% activation) ± σ [1]: 99.6 ± 2.8%

Molecule: c1cc2c(c3c1C[C@H]1c4cc5c(cc4CCN1C3)OCO5)OCO2 [Stylopine]
- μ (% activation) ± σ [1]: 101.4 ± 4.1%

Molecule: (−)-monomethylester-15 dehydropinifolic acid
- μ (% activation) ± σ [1]: 103.8 ± 1.1%

Molecule: CC(C)=CCOC(=O)/C=C/c1ccc(O)c(O)c1 [Prenyl caffeate]
- μ (% activation) ± σ [1]: 102.4 ± 0.8%

Molecule: C=CCc1ccc(O)c(-c2ccc(O)c(CC=C)c2)c1 [Honokiol]
- μ (% activation) ± σ [1]: 93.9 ± 2%

Molecule: O=c1cc(-c2ccccc2)oc2cc(O)cc(O)c12 [Chrysine]
- μ (% activation) ± σ: 91.7 ± 1.4%

Molecule: O=C(/C=C/c1ccc(O)c(O)c1)OC/C=C/c1ccccc1 [Cinnamyl caffeate, [(E)-3-phenylprop-2-enyl] (E)-3-(3,4-dihydroxyphenyl)prop-2-enoate]
- IRE1 inhibition (in words): inhibit IRE1 in a micromolar scale
- μ (% activation) ± σ [1]: 73.4 ± 1.7%
- IC50 (read-out: IRE1 IC50): 21.6 µM

Molecule: COc1cccc2c1C(=O)c1nccc3cc4c(c-2c13)OCO4 [Oxostephanine, 15-methoxy-3,5-dioxa-11-azapentacyclo [10.7.1.0^2,6.0^8,20.0^14,19]icosa-(20),2(6),7,9,11,14(19),15,17-octaen-13-one]
- μ (% activation) ± σ [1]: 77.5 ± 0.9%

Molecule: C[C@H]1C(=O)CC[C@@H]2[C@]1(C)CC[C@H]1[C@@]2(C)CC[C@@]2(C)[C@@H]3CC(C)(C)CC[C@]3(C)CC[C@]12C [Friedelin]
- μ (% activation) ± σ [1]: 104.6 ± 0.7%

Molecule: O=c1cc(-c2ccc(O)c(-c3c(O)cc(O)c4c(=O)cc(-c5ccc(O)cc5)oc34)c2)oc2cc(O)cc(O)c12 [Amentoflavone]
- μ (% activation) ± σ [1]: 101.8 ± 2.3%

Molecule: COc1c(O)cc2oc3cc(O)c(CC=C(C)C)c(O)c3c(=O)c2c1CC=C(C)C [α-mangostin]
- μ (% activation) ± σ [1]: 67.5 ± 0.2%

Molecule: O=c1c(O)c(-c2ccc(O)c(O)c2)oc2cc(O)cc(O)c12 [Quercetin]
- μ (% activation) ± σ [1]: 98.5 ± 1.4%

Molecule: Cycleanine
- μ (% activation) ± σ: 102.2 ± 1.9%

Molecule: Cc1cc(=O)oc2cc(O)cc(O)c12 [5,7-dihydroxy-4-methyl coumarin]
- μ (% activation) ± σ [1]: 104.0 ± 1.4%

Molecule: COc1ccc2c(c1O)Oc1c(O)ccc3c1[C@H](C2)N(C)CC3 [Claviculine]
- μ (% activation) ± σ [1]: 100.3 ± 2.5%

Molecule: CC(Cc1ccccc1)NCCCc1ccccc1 (stereo not shown) [N-(3-Phenyl-n-propyl)-1-phenyl-2-aminopropane]
- μ (% activation) ± σ: 102.6 ± 1%

Molecule: Cc1cc(O)c2c(c1)C(=O)c1cc(O)cc(O)c1C2=O [Emodin]
- μ (% activation) ± σ [1]: 104.5 ± 3.1%

Molecule: COc1ccc2cc1Oc1ccc(cc1)C[C@H]1c3c(cc4c(c3Oc3cc5c(cc3OC)CCN(C)[C@@H]5C2)OCO4)CCN1C [Cepharantine]
- μ (% activation) ± σ [1]: 102.2 ± 4.0%

Molecule: O=c1c2cc(O)ccc2oc2c(O)c(O)c(O)c(O)c12 [2,5,6,7,8-Pentahydroxyxanthone]
- μ (% activation) ± σ [1]: 102.3 ± 0.7%

Molecule: Pseudoanibacanine
- μ (% activation) ± σ [1]: 100.0 ± 3.7%

Molecule: CC(=O)O[C@H]1C(=O)c2c(O)cc(O)cc2O[C@@H]1c1ccccc1 [Pinobanksine 3-O-acetate]
- μ (% activation) ± σ [1]: 100.3 ± 2.7%

Molecule: (±)-Lindératine
- μ (% activation) ± σ [1]: 103.0 ± 2.1%

Molecule: COc1cc(C[C@H]2C(=O)OC[C@@H]2Cc2ccc3c(c2)OCO3)cc(OC)c1OC [Yatein]
- μ (% activation) ± σ: 100.7 ± 2.5%

Molecule: COc1cc(C(=O)O)cc(OC)c1O [Syringic acid]
- μ (% activation) ± σ [1]: 97.8 ± 3.1%

Molecule: CC1(C)C=Cc2c(cc3oc4ccc5c(c4c(=O)c3c2O)C=CC(C)(C)O5)O1 [Thwaitesixanthone]
- μ (% activation) ± σ [1]: 101.1 ± 2.1%

Molecule: C[C@@H]1O[C@@H](Oc2c(-c3ccc(O)c(O)c3)oc3cc(O)cc(O)c3c2=O)[C@H](O)[C@H](O)[C@H]1O [Quercitrin]
- μ (% activation) ± σ: 102 ± 2.4%

Molecule: 2-Deprenyl-rheediaxanthone B
- μ (% activation) ± σ [1]: 97.3 ± 4.2%

Molecule: 5,6-O-dimethyl-2-deprenylrheediaxanthone
- μ (% activation) ± σ [1]: 100.3 ± 1.6%

Molecule: COc1cc(/C=C/C(=O)CC(=O)/C=C/c2ccc(O)c(OC)c2)ccc1O [Curcumine]
- μ (% activation) ± σ [1]: 177.3 ± 10.3%

Molecule: CC(C)=CCc1c(O)c(CC=C(C)C)c2oc3c(O)cccc3c(=O)c2c1O [8-deoxygartanin]
- μ (% activation) ± σ [1]: 96.6 ± 5.7%

Molecule: COc1ccc2c(c[n+](C)c3c4cc5c(cc4ccc23)OCO5)c1OC [Chelerythrine]
- μ (% activation) ± σ [1]: 103.2 ± 3.6%

Molecule: O=c1ccc2ccc(O)cc2o1 [Umbelliferone]
- μ (% activation) ± σ [1]: 105.3 ± 2.3%

Molecule: (−)-Argemonine
- μ (% activation) ± σ: 102.6 ± 2.0%

Molecule: (-)-Curine
- μ (% activation) ± σ [1]: 100.0 ± 3.8%

Molecule: Mammea A/AA cycloF
- μ (% activation) ± σ [1]: 93.8 ± 1.1%

Molecule: demethylrubraxanthone
- IC50 (read-out: IRE1 IC50): 6.5 ± 0.4 µM

Molecule: CC(C)=CCc1c(O)cc2oc3ccc(O)cc3c(=O)c2c1O [1,3,7-trihydroxy-2-prenylxanthone]
- μ (% activation) ± σ [1]: 89.7 ± 0.6%

Molecule: COc1c(O)ccc2c(=O)c3c(O)cc4c(c3oc12)C(C)(C)C(C)O4 (stereo not shown) [5-O-methyl-2-deprenylrheediaxanthone B]
- μ (% activation) ± σ [1]: 91.6 ± 3.3%

Molecule: O=C(/C=C/c1ccc(O)c(O)c1)OCc1ccccc1 [Benzyl caffeate]
- μ (% activation) ± σ [1]: 104.6 ± 4.8%

Molecule: CC(C)=CCc1c(O)cc2oc3c(CC=C(C)C)c(O)c(O)c(CC=C(C)C)c3c(=O)c2c1O [Garcinon E]
- μ (% activation) ± σ [1]: 101.6 ± 3.9%

Molecule: CC1=CC(=O)C(C(C)C)=CC1=O [Thymoquinone]
- μ (% activation) ± σ [1]: 104.3 ± 2.2%

Molecule: CC(C)=CCc1c(O)cc2oc3ccc4c(c3c(=O)c2c1O)C=CC(C)(C)O4 [Calothwaitesixanthone]
- μ (% activation) ± σ [1]: 104.6 ± 1.4%

Molecule: C=C(CO)C(=O)O[C@H]1CC(=C)[C@@H]2C[C@H](O)C(=C)[C@@H]2[C@H]2OC(=O)C(=C)[C@@H]21 [Cynaropicrin]
- μ (% activation) ± σ: 105.6 ± 0.7%

Molecule: Oc1cc(O)c2c(c1)O[C@H](c1ccc(O)c(O)c1)[C@H](O)C2 [Epicatechin]
- μ (% activation) ± σ [1]: 101.4 ± 0.4%

Molecule: O=C1C[C@@H](c2ccc(O)cc2)Oc2cc(O)cc(O)c21 [Naringenin]
- μ (% activation) ± σ [1]: 101.1 ± 1.2%

Molecule: CCCC(=O)c1c(O)c(CC=C(C)C)c2oc(=O)cc(-c3ccccc3)c2c1O [Mammea A/AC]
- μ (% activation) ± σ [1]: 102.4 ± 1.7%

Molecule: Oc1cc(O)c2c(c1)O[C@H](c1ccc(O)c(O)c1)[C@H](O)[C@H]2c1c(O)cc(O)c2c1O[C@H](c1ccc(O)c(O)c1)[C@H](O)C2 [Procyanidin B2]
- μ (% activation) ± σ: 101.6 ± 1%

Molecule: Anibacanine
- μ (% activation) ± σ [1]: 100.2 ± 3.6%

Molecule: O=C1c2c(O)cc(O)cc2O[C@H](c2ccccc2)[C@H]1O [Pinobanksine]
- μ (% activation) ± σ [1]: 101.5 ± 0.8%

Molecule: CC1=C[C@H]2c3c(c(O)c(O)c4oc5cc(O)cc(O)c5c(=O)c34)[C@H](c3cc(O)c(O)c4oc5cc(O)cc(O)c5c(=O)c34)[C@H]2C(C)(C)C1 [Griffipavixanthone]
- μ (% activation) ± σ [1]: 96.8 ± 1.3%

Molecule: COc1c(OC)c(O)c2c(=O)c(O)c(-c3ccccc3)oc2c1OC [3,5-dihydroxy-6,7,8-trimethoxyflavone]
- μ (% activation) ± σ [1]: 98.3 ± 2.4%

Molecule: C[n+]1cc2c3c(ccc2c2ccc4cc5c(cc4c21)OCO5)OCO3 [Sanguinarine]
- μ (% activation) ± σ: 91.1 ± 3.1%

Molecule: CC(C)=CCc1c(O)c(CC=C(C)C)c2oc3c(O)ccc(O)c3c(=O)c2c1O [Gartanin]
- μ (% activation) ± σ [1]: 95.1 ± 5.5%

Molecule: CC(C)=C/C=C/C(C)=C/[C@H]1CC[C@@H]2[C@@]3(C)CC[C@H](O)C(C)(C)[C@@H]3CC[C@@]2(C)[C@@]12COC(=O)C2 [Ebelin lactone]
- μ (% activation) ± σ [1]: 102.5 ± 0.9%

Molecule: Caledonixanthone K
- μ (% activation) ± σ [1]: 100.7 ± 2%

Molecule: CC(C)=CCC[C@@H](C)[C@@H]1CC[C@]2(C)C3=C(CC[C@@]12C)[C@@]1(C)CC[C@H](O)C(C)(C)[C@@H]1CC3 [Euphol]
- μ (% activation) ± σ [1]: 105.3 ± 0.7%

Molecule: O=c1c2ccc(O)c(O)c2oc2cc(O)cc(O)c12 [1,3,5,6-tétra-hydroxy-xanthone]
- μ (% activation) ± σ [1]: 103.9 ± 0.7%

Molecule: O=C1c2c(O)cc(O)cc2O[C@@H](c2ccc(O)cc2)[C@@H]1c1c(O)cc(O)c2c(=O)cc(-c3ccc(O)cc3)oc12 (racemic) [(±)-Volkensiflavone]
- μ (% activation) ± σ [1]: 95.8 ± 0.5%

Molecule: COc1c(O)cc2oc3cc4c(c(O)c3c(=O)c2c1CC=C(C)C)C=CC(C)(C)O4 [9-hydroxycalabaxanthone]
- μ (% activation) ± σ [1]: 103.5 ± 2.8%

Molecule: Steponine
- μ (% activation) ± σ [1]: 103.4 ± 1.3%
